Assay results taken from patent US8889874B2, “Imidazolone-chalcone derivatives as potential anticancer agent and process for the preparation thereof” (Council of Scientific and Industrial Research, priority 2010, dated 2014).
Read-outs that look alike come from different tables or passages of the source.

Legend:
Experiment in all cases: NCI anticancer screen, SRB assay, 48 h
Format in all cases: cell-based, human
HCT-116 (colon) = details: Homo sapiens
How it was run: (§1)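 Compounds were tested across fifty three human cancer cell lines from nine tumour types. Each line got a dose-response curve of at least five concentrations at 10-fold dilutions, with continuous drug exposure and sulforhodamine B protein staining to estimate viability or growth.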

UACC-62 (melanoma) = details: Homo sapiens
How it was run: as §1

[1] = system: RPMI-8226 (leukemia cell line); details: Homo sapiens
How it was run: as §1

[2] = system: K-562 (leukemia cell line); details: Homo sapiens
How it was run: as §1

M14 (melanoma) = details: Homo sapiens
How it was run: as §1

SF-295 (CNS) = details: Homo sapiens
How it was run: as §1

U251 (CNS) = details: Homo sapiens
How it was run: as §1

SNB-19 (CNS) = details: Homo sapiens
How it was run: as §1

MDA-MB-231/ATCC (breast) = details: Homo sapiens
How it was run: as §1

OVCAR-4 (ovarian) = details: Homo sapiens
How it was run: as §1

UACC-257 (melanoma) = details: Homo sapiens
How it was run: as §1

MALME-3M (melanoma) = details: Homo sapiens
How it was run: as §1

HT29 (colon) = details: Homo sapiens
How it was run: as §1

[3] = system: HOP-62 (non-small cell lung); details: Homo sapiens
How it was run: as §1

SK-MEL-28 (melanoma) = details: Homo sapiens
How it was run: as §1

SF-268 (CNS) = details: Homo sapiens
How it was run: as §1

OVCAR-8 (ovarian) = details: Homo sapiens
How it was run: as §1

[4] = system: NCI-H460 (non-small cell lung); details: Homo sapiens
How it was run: as §1

SW-620 (colon) = details: Homo sapiens
How it was run: as §1

MCF7 (breast) = details: Homo sapiens
How it was run: as §1

NCI/ADR-RES (ovarian) = details: Homo sapiens, NCI/ADR-RES
How it was run: as §1

LOX IMVI (melanoma) = details: Homo sapiens
How it was run: as §1

[5] = system: NCI-H226 (non-small cell lung); details: Homo sapiens
How it was run: as §1

RXF 393 (renal) = details: Homo sapiens
How it was run: as §1

SNB-75 (CNS) = details: Homo sapiens
How it was run: as §1

786-0 (renal) = details: Homo sapiens
How it was run: as §1

SK-OV-3 (ovarian) = details: Homo sapiens
How it was run: as §1

HS 578T (breast) = details: Homo sapiens
How it was run: as §1

ACHN (renal) = details: Homo sapiens
How it was run: as §1

[6] = 48 h exposure, SRB, read-out: GI50
[7] = read-out: pGI50 (-log of molar concentration causing 50% inhibition of net cell growth) (converted)

SMILES: COc1cc(/C=C/C(=O)c2cccc(-n3cc(-c4ccccc4)[nH]c3=O)c2)ccc1O [3a, 1-3-[(E)-3-(4-hydroxy-3-methoxyphenyl)-2-propenoyl]phenyl-4-phenyl-2,3-dihydro-1H-2-imidazolone]
- GI50 (HCT-116 (colon); [6]): 1.4 µM
- GI50 (HCT-116 (colon); [7]): 1.41 µM
- GI50 (UACC-62 (melanoma); [6]): 2.01 µM
- GI50 (UACC-62 (melanoma); [7]): 2 µM
- GI50 [1, 6]: 1.67 µM
- GI50 [1, 7]: 1.66 µM
- GI50 ([2]; K562, 48 h exposure, SRB, read-out: GI50): 2.04 µM
- GI50 ([2]; K562, read-out: pGI50 (-log of molar concentration causing 50% inhibition of net cell growth) (converted)): 2.04 µM
- GI50 (M14 (melanoma); [6]): 2.61 µM
- GI50 (M14 (melanoma); [7]): 2.63 µM
- GI50 (SF-295 (CNS); [6]): 3.04 µM
- GI50 (SF-295 (CNS); [7]): 3.02 µM
- GI50 (U251 (CNS); U-251, 48 h exposure, SRB, read-out: GI50): 2.11 µM
- GI50 (U251 (CNS); U-251, read-out: pGI50 (-log of molar concentration causing 50% inhibition of net cell growth) (converted)): 2.09 µM
- GI50 (SNB-19 (CNS); [6]): 2.96 µM
- GI50 (SNB-19 (CNS); [7]): 2.95 µM
- GI50 (MDA-MB-231/ATCC (breast); [6]): 3.36 µM
- GI50 (MDA-MB-231/ATCC (breast); [7]): 3.39 µM
- GI50 (OVCAR-4 (ovarian); [6]): 5.19 µM
- GI50 (OVCAR-4 (ovarian); [7]): 5.25 µM
- GI50 (UACC-257 (melanoma); [6]): 6.81 µM
- GI50 (UACC-257 (melanoma); [7]): 6.76 µM
- GI50 (MALME-3M (melanoma); Malme-3M, read-out: pGI50 (-log of molar concentration causing 50% inhibition of net cell growth) (converted)): 2.69 µM
- GI50 (MALME-3M (melanoma); MALME-3M, 48 h exposure, SRB, read-out: GI50): 2.67 µM
- GI50 (HT29 (colon); HT-29, 48 h exposure, SRB, read-out: GI50): 3.77 µM
- GI50 (HT29 (colon); HT-29, read-out: pGI50 (-log of molar concentration causing 50% inhibition of net cell growth) (converted)): 3.8 µM
- GI50 [3, 6]: 1.48 µM
- GI50 [3, 7]: 1.48 µM
- GI50 (SK-MEL-28 (melanoma); [6]): 1.85 µM
- GI50 (SK-MEL-28 (melanoma); [7]): 1.86 µM
- GI50 (SF-268 (CNS); [6]): 2.07 µM
- GI50 (SF-268 (CNS); [7]): 2.09 µM
- GI50 (OVCAR-8 (ovarian); [6]): 4.11 µM
- GI50 (OVCAR-8 (ovarian); [7]): 4.07 µM
- GI50 [4, 6]: 1.95 µM
- GI50 [4, 7]: 1.95 µM
- GI50 (SW-620 (colon); [6]): 2.29 µM
- GI50 (SW-620 (colon); [7]): 2.29 µM
- GI50 (MCF7 (breast); [6]): 1.55 µM
- GI50 (MCF7 (breast); [7]): 1.55 µM
- GI50 (NCI/ADR-RES (ovarian); NCl/ADR-RES, 48 h exposure, SRB, read-out: GI50): 2.92 µM
- GI50 (NCI/ADR-RES (ovarian); [7]): 2.95 µM
- GI50 (LOX IMVI (melanoma); [6]): 1.88 µM
- GI50 (LOX IMVI (melanoma); [7]): 1.86 µM
- GI50 [5, 6]: 2.6 µM
- GI50 [5, 7]: 2.57 µM
- GI50 (RXF 393 (renal); RXF 393, 48 h exposure, SRB, read-out: GI50): 2.27 µM
- GI50 (RXF 393 (renal); RXF-393, read-out: pGI50 (-log of molar concentration causing 50% inhibition of net cell growth) (converted)): 2.29 µM
- GI50 (SNB-75 (CNS); [6]): 3.9 µM
- GI50 (SNB-75 (CNS); [7]): 3.89 µM
- GI50 (786-0 (renal); [6]): 1.35 µM
- GI50 (786-0 (renal); [7]): 1.35 µM
- GI50 (SK-OV-3 (ovarian); [6]): 3.76 µM
- GI50 (SK-OV-3 (ovarian); [7]): 3.8 µM
- GI50 (HS 578T (breast); [6]): 4.16 µM
- GI50 (HS 578T (breast); [7]): 4.17 µM
- GI50 (ACHN (renal); [6]): 2.5 µM
- GI50 (ACHN (renal); [7]): 2.51 µM
